These results are taken from patent US20220313698A1, “MODULATORS OF CYSTIC FIBROSIS TRANSMEMBRANE CONDUCTANCE REGULATOR” (Vertex Pharmaceuticals Incorporated, priority 2019, published 2022).

For this assay, the target named is CFTR-mediated chloride transport (Homo sapiens, UniProt P13569). Nature of the assay: Corrector Assay A - membrane potential dye assay (enteroid cells). Particulars: for Corrector Assay A % activity: % of chloride transport of triple combination control (1 μM (14S)-dispiro macrocycle + 3 μM tezacaftor + 300 nM ivacaftor); for EC50: read-out: Corrector Assay A EC50, human intestinal enteroid cells, 18-24 h incubation, acute 10 μM forskolin + 300 nM ivacaftor.

In the case of `CC(C)(C)c1ccc2c(n1)N1C[C@@H](CCC(C(=O)O)Nc3cccc(n3)S(=O)(=O)NC2=O)CC1(C)C` (single isomer, unassigned) [Compound 231], the “Corrector Assay A % activity” value is given as “+ (+ is <30%)” and the EC50 is > 3000 nM.
Regarding `CC(C)(C)c1ccc2c(n1)N1C[C@@H](CC[C@@H](C3CCCCC3)Nc3cccc(n3)S(=O)(=O)NC2=O)CC1(C)C` (single isomer, unassigned) [Compound 235], the “Corrector Assay A % activity” value is “++ (++ is 30-60%)” and the EC50 is < 1000 nM.
In the case of `CC(C)(C)c1ccc2c(n1)N1C[C@@H](CCC(c3ccc(N4CCCC4)cn3)Nc3cccc(n3)S(=O)(=O)NC2=O)CC1(C)C` (some centres unmarked) [Compound 163], the “Corrector Assay A % activity” value is “++ (++ is 30-60%)” and the EC50 is < 1000 nM.
With `CC(C)(C)c1ccc2c(n1)N1C[C@@H](CCC(c3ccc(CCC(=O)O)cn3)Nc3cccc(n3)S(=O)(=O)NC2=O)CC1(C)C` (stereo partly drawn) [Compound 98, 3-{6-[(14S)-8-tert-Butyl-12,12-dimethyl-2,2,4-trioxo-2λ^6-thia-3,9,11,18,23-pentaazatetracyclo[17.3.1.111,14.05,10]tetracosa-1(23),5(10),6,8,19,21-hexaen-17-yl]pyridin-3-yl}propanoic acid], the “Corrector Assay A % activity” value is “+ (+ is <30%)” and the EC50 lay within 1000 to 3000 nM.
The corresponding values for `Cc1ccc2cc3c(nc2c1)N1C[C@@H](CC[C@@H](c2cc(C(C)(C)C)ccn2)Nc2cccc(n2)S(=O)(=O)NC3=O)CC1(C)C` (single isomer, unassigned) [Compound 7] are “+++ (+++ is >60%)” and < 1000 nM.
For `CC(C)(C)c1ccc2c(n1)N1C[C@@H](CCC(C3CCN(CCC(F)(F)F)CC3)Nc3cccc(n3)S(=O)(=O)NC2=O)CC1(C)C` (stereo partly drawn) [Compound 238, (14S)-8-tert-butyl-12,12-dimethyl-17-[1-(3,3,3-trifluoropropyl)piperidin-4-yl]-2λ^6-thia-3,9,11,18,23-pentaazatetracyclo[17.3.1.111,14.05,10]tetracosa-1(23),5(10),6,8,19,21-hexaene-2,2,4-trione], the “Corrector Assay A % activity” value was “++ (++ is 30-60%)” and the EC50 was < 1000 nM.
For the compound `CC1(C)C[C@@H]2CC[C@H](c3ccccn3)Nc3cccc(n3)S(=O)(=O)NC(=O)c3ccc(Cc4ccccc4)nc3N1C2` [Compound 159], the “Corrector Assay A % activity” value is reported as “+++ (+++ is >60%)” and the EC50 is < 1000 nM.
Take `CC(C)(C)c1ccc2c(n1)N1C[C@@H](CCC(c3ccc(CO)cn3)Nc3cccc(n3)S(=O)(=O)NC2=O)CC1(C)C` (some centres unmarked) [Compound 78]: the “Corrector Assay A % activity” value was “+++ (+++ is >60%)” and the EC50 is < 1000 nM.
As to `Cn1cc(C2CC[C@@H]3CN(c4nc(C(C)(C)C)ccc4C(=O)NS(=O)(=O)c4cccc(n4)N2)C(C)(C)C3)cn1` (single isomer, unassigned) [Compound 280], the “Corrector Assay A % activity” value is reported as “+++ (+++ is >60%)” and the EC50 was < 1000 nM.
With `CN1c2cccc(n2)S(=O)(=O)NC(=O)c2ccc(C(C)(C)C)nc2N2C[C@@H](CCC1c1ccccc1)CC2(C)C` (single isomer, unassigned) [Compound 261], the “Corrector Assay A % activity” value is “+ (+ is <30%)” and the 50% effective concentration (EC50) is < 1000 nM.
The corresponding values for `Cc1cccc2cc3c(nc12)N1C[C@@H](CCC(c2cc(C(C)(C)C)ccn2)Nc2cccc(n2)S(=O)(=O)NC3=O)CC1(C)C` (single isomer, unassigned) [Compound 4] are “++ (++ is 30-60%)” and < 1000 nM.
Take `CN1CCC(C2CC[C@@H]3CN(c4nc(C(C)(C)C)ccc4C(=O)NS(=O)(=O)c4cccc(n4)N2)C(C)(C)C3)CC1` (single isomer, unassigned) [Compound 240]: the “Corrector Assay A % activity” value was “+++ (+++ is >60%)” and the EC50 fell in the range of 1000 to 3000 nM.
`CC(C)c1ccn(-c2ccc3c(n2)N2C[C@@H](CC[C@H](c4ccccn4)Nc4cccc(n4)S(=O)(=O)NC3=O)CC2(C)C)n1` [Compound 336]: the “Corrector Assay A % activity” value is recorded as “+++ (+++ is >60%)” and the EC50 is < 1000 nM.
With `CC(C)(C)C#Cc1ccc2c(n1)N1C[C@@H](CC[C@@H](c3ccccn3)Nc3cccc(n3)S(=O)(=O)NC2=O)CC1(C)C` [Compound 176], the “Corrector Assay A % activity” value is given as “++ (++ is 30-60%)” and the EC50 was < 1000 nM.
Consider `CC1(C)C[C@@H]2CC[C@H](c3ccccn3)Nc3cccc(n3)S(=O)(=O)NC(=O)c3ccc(C4CCC4)nc3N1C2` [Compound 330, (14S,17R)-8-cyclobutyl-12,12-dimethyl-17-(pyridin-2-yl)-2λ^6-thia-3,9,11,18,23-pentaazatetracyclo[17.3.1.111,14.05,10]tetracosa-1(22),5,7,9,19(23),20-hexaene-2,2,4-trione], for which the “Corrector Assay A % activity” value is on record as “+++ (+++ is >60%)” and the EC50 was < 1000 nM.
The corresponding values for `Cn1ccc(-c2ccc(C3CC[C@@H]4CN(c5nc(C(C)(C)C)ccc5C(=O)NS(=O)(=O)c5cccc(n5)N3)C(C)(C)C4)nc2)n1` (some centres unmarked) [Compound 60] are “+++ (+++ is >60%)” and < 1000 nM.
Take `CC(C)(C)c1ccc2c(n1)N1C[C@@H](CC[C@@H](C3CCN(c4ncccn4)CC3)Nc3cccc(n3)S(=O)(=O)NC2=O)CC1(C)C` (single isomer, unassigned) [Compound 219]: the “Corrector Assay A % activity” value is “++ (++ is 30-60%)” and the EC50 was < 1000 nM.
The corresponding values for `C[C@@H](O)C[C@@H]1CC[C@@H]2CN(c3nc(C(C)(C)C)ccc3C(=O)NS(=O)(=O)c3cccc(n3)N1)C(C)(C)C2` (single isomer, unassigned) [Compound 27] are “++ (++ is 30-60%)” and < 1000 nM.
Take `CC1(C)C[C@@H]2CCC(c3ccccn3)Nc3cccc(n3)S(=O)(=O)NC(=O)c3ccc(-n4ccc(OCCC5C6(CC6)C56CC6)n4)nc3N1C2` (stereo partly drawn) [Compound 355, (14S)-8-[3-(2-{dispiro[2.0.2.1]heptan-7-yl}ethoxy)-1H-pyrazol-1-yl]-12,12-dimethyl-17-(pyridin-2-yl)-2λ^6-thia-3,9,11,18,23-pentaazatetracyclo[17.3.1.111,14.05,10]tetracosa-1(22),5,7,9,19(23),20-hexaene-2,2,4-trione]: the “Corrector Assay A % activity” value is on record as “+++ (+++ is >60%)” and the EC50 is < 1000 nM.
In the case of `CC(C)(C)c1ccc2c(n1)N1C[C@@H](CCC(c3cc(Cl)ccn3)Nc3cccc(n3)S(=O)(=O)NC2=O)CC1(C)C` (single isomer, unassigned) [Compound 128], the “Corrector Assay A % activity” value is “+++ (+++ is >60%)” and the EC50 was < 1000 nM.
Regarding `CC(C)(C)c1ccc2c(n1)N1C[C@@H](CC[C@@H](c3cccc(N4CCCCC4)n3)Nc3cccc(n3)S(=O)(=O)NC2=O)CC1(C)C` [Compound 173], the “Corrector Assay A % activity” value was “+ (+ is <30%)” and the EC50 is < 1000 nM.
In the case of `CC(C)(C)c1ccc2c(n1)N1C[C@@H](CCC(CCCC(=O)O)Nc3cccc(n3)S(=O)(=O)NC2=O)CC1(C)C` (stereo partly drawn) [Compound 19, 4-[(14S)-8-tert-Butyl-12,12-dimethyl-2,2,4-trioxo-2λ^6-thia-3,9,11,18,23-pentaazatetracyclo[17.3.1.111,14.05,10]tetracosa-1(23),5(10),6,8,19,21-hexaen-17-yl]butanoic acid], the “Corrector Assay A % activity” value is “+++ (+++ is >60%)” and the 50% effective concentration (EC50) was in the range of 1000 to 3000 nM.
